# Results reported in paper PMC12150604, “Exploring structure–activity relationships of pyrrolyl diketo acid derivatives as non-nucleoside inhibitors of terminal deoxynucleotidyl transferase enzyme” (Journal of Enzyme Inhibition and Medicinal Chemistry, 2025).
# Several values for one entry are separate records, joined by “and”; a condition that tells them apart may be missing. Equal entries are not always repeated. Where two headings read alike, the source gives them in different places.
# Molecular target: T1, human TdT (Homo sapiens, UniProt P04053)
# T1 construct: purchased Trevigen (Gaithersburg, MD)
# Experiment: Terminal transferase assay, TdT
# Type: biochemical
# Details: for IC50: human TdT
# Protocol: Recombinant full-length human DNA polymerase λ and β were generated and purified as described. After purification, the protein was >90% homogeneous, as judged by sodium dodecyl sulphate (SDS)−polyacrylamide gel electrophoresis (PAGE) and Coomassie staining. TdT was from Trevigen (Gaithersburg, MD).
# Terminal Transferase Assay. DNA polymerase λ and TdT terminal transferase activities were assayed in a final volume of 25 μL containing 50 mM Tris-HCl (pH 7.0), 0.25 mg/mL BSA, 1 mM DTT, 0.2 μM ss 30mer (AAC)10 DNA oligonucleotide, 25 μM [3H]dNTPs (10 Ci/mmol) and 0.5 mM MnCl2 or 5 mM MgCl2 used as cofactors. Terminal transferase activity was monitored in the presence of 10% DMSO or in the presence of increasing amounts of inhibitors dissolved in DMSO. All reactions were incubated for 10 min at 37 °C and the DNA precipitated with 10% trichloroacetic acid. Insoluble radioactive material was determined by scintillation counting using Trilux beta-counter (PerkinElmer) as described.
# Dose − response curves were generated by computer fitting of the data to the equation E(%) = Emax/(1 + I/ID50) where E(%) is the fraction of enzyme’s activity measured in the presence of the inhibitor, Emax is the activity in the absence of the inhibitor, I is the inhibitor concentration, and ID50 is the inhibitor concentration at which E(%) = 0.5 Emax. ID50 values were generated using GraphPad Prism 6.
# [1] = Mg2+ as cofactor, read-out: ID50 (µM) Mg2+
# [2] = Mn2+ as cofactor, read-out: ID50 (µM) Mn2+
# T1 sequence (P04053 whole entry): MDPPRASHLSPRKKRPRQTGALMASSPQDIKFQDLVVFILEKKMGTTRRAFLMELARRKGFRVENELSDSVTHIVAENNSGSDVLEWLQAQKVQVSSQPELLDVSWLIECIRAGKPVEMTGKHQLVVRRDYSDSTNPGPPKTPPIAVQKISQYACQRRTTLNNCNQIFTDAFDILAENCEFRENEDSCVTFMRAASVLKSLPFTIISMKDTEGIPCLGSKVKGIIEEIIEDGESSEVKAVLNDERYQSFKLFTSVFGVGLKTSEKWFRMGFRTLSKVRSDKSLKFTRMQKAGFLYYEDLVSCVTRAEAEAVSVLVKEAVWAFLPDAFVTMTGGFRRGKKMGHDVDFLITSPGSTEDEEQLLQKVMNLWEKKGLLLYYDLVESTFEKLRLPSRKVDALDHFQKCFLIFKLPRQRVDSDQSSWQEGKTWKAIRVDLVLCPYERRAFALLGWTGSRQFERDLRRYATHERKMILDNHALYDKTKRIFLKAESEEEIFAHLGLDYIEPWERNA
Compound,IC50 [1],IC50 [2],also measured
COc1ccc(C(=O)Nc2ccc(C(=O)c3cc(/C=C/C(=O)/C=C(\O)C(=O)O)n(Cc4ccc(F)cc4)c3)cc2)cc1Br [Compound 6g],0.41 ± 0.03 µM,> 50 µM,
O=C(/C=C(\O)C(=O)O)/C=C/c1cc(C(=O)c2ccc(OCc3ccc4ccccc4c3)cc2)cn1Cc1ccc(F)cc1 [Compound 6d],12.8 ± 4.2 µM,> 50 µM,
CCOC(=O)/C(O)=C/C(=O)/C=C/c1cc(C(=O)c2ccc(OCc3ccc4ccccc4c3)cc2)cn1Cc1ccc(F)cc1 [Compound 5d],5.83 ± 1.76 µM,> 50 µM,
CCOC(=O)/C(O)=C/C(=O)/C=C/c1cc(C(=O)c2cc(OC)c(OC)c(OC)c2)c[nH]1 [Compound 5k],10.6 ± 3.6 µM,1.28 ± 0.27 µM,"times lower potency than acid counterpart 6k (TdT, Mn2+, ratio of ID50): 3 times"
CCOC(=O)/C(O)=C/C(=O)/C=C/c1cc(C(=O)c2ccccc2)cn1S(=O)(=O)c1ccc(F)cc1 [Compound 5m],3.87 ± 0.55 µM,8.75 ± 0.35 µM,
"O=C(O)/C(O)=C/C(=O)c1cccn1Cc1ccc(F)cc1 [Compound 10a, (Z)-4-(1-(4-fluorobenzyl)-1H-pyrrol-2-yl)-2-hydroxy-4-oxobut-2-enoic acid]",,1.16 ± 0.35 µM,
COc1cc(-c2c[nH]cc2/C=C/C(=O)/C=C(\O)C(=O)O)cc(OC)c1OC [Compound 8d],0.24 ± 0.03 µM,0.23 ± 0.03 µM,
CCOC(=O)/C(O)=C/C(=O)/C=C/c1cc(C(=O)c2ccccc2)cn1Cc1cccc2ccccc12 [Compound 5j],3.68 ± 1 µM,> 50 µM,
"CCOC(=O)/C(O)=C/C(=O)/C=C/c1cc(C(=O)c2ccccc2)c[nH]1 [Compound 5l, (2Z,5E)-ethyl 6-(4-benzoyl-1H-pyrrol-2-yl)-2-hydroxy-4-oxohexa-2,5-dienoate]",37.8 µM and 35.8 µM,> 50 µM,
"O=C(/C=C(\O)C(=O)O)/C=C/c1cn(Cc2ccc(F)cc2)cc1-c1ccccc1 [Compound 8b, (2Z,5E)-6-(1-(4-fluorobenzyl)-4-phenyl-1H-pyrrol-3-yl)-2-hydroxy-4-oxohexa-2,5-dienoic acid]",,0.66 ± 0.12 µM,
"O=C(O)/C(O)=C/C(=O)c1cc(-c2ccccc2)cn1Cc1ccc(F)cc1 [Compound 10b, (Z)-4-(1-(4-fluorobenzyl)-4-phenyl-1H-pyrrol-2-yl)-2-hydroxy-4-oxobut-2-enoic acid]",,3.25 ± 0.66 µM,
"CCOC(=O)/C(O)=C/C(=O)c1cc(-c2ccccc2)cn1Cc1ccc(F)cc1 [Compound 9b, Ethyl (Z)-4-(1-(4-fluorobenzyl)-4-phenyl-1H-pyrrol-2-yl)-2-hydroxy-4-oxobut-2-enoate]",,> 50 µM,
CCOC(=O)/C(O)=C\C(=O)/C=C/c1cc(C(=O)c2ccc([N+](=O)[O-])cc2)cn1Cc1ccc(F)cc1 [Compound 5f],6.54 ± 0.78 µM,> 50 µM,
"CCOC(=O)/C(O)=C/C(=O)/C=C/c1cc(-c2ccccc2)cn1Cc1ccc(F)cc1 [Compound 5b, Ethyl (2Z,5E)-6-(1-(4-fluorobenzyl)-4-phenyl-1H-pyrrol-2-yl)-2-hydroxy-4-oxohexa-2,5-dienoate]",,> 50 µM,
O=C(/C=C(\O)C(=O)O)/C=C/c1cc(C(=O)c2ccccc2)cn1S(=O)(=O)c1ccc(F)cc1 [Compound 6m],0.34 ± 0.01 µM,0.33 ± 0.05 µM,
O=C(/C=C(\O)C(=O)O)/C=C/c1cc(C(=O)c2ccccc2)cn1Cc1cccc2ccccc12 [Compound 6j],2.11 ± 0.5 µM,> 50 µM,
"(E)-6-(1-(4-fluorobenzyl)-4-(4-phenoxybenzoyl)-1H-pyrrol-2-yl)-2,4-dioxohex-5-enoic acid [Compound 6e]",,>50 µM,
"O=C(/C=C(\O)C(=O)O)/C=C/c1cc(-c2ccccc2)cn1Cc1ccc(F)cc1 [Compound 6b, (2Z,5E)-6-(1-(4-fluorobenzyl)-4-phenyl-1H-pyrrol-2-yl)-2-hydroxy-4-oxohexa-2,5-dienoic acid]",> 50 µM,6.9 ± 2.5 µM,

Compound,IC50 [1],IC50 [2],also measured
"O=C(/C=C(\O)C(=O)O)/C=C/c1cc(C(=O)c2ccccc2)c[nH]1 [Compound 6l, (2Z,5E)-6-(4-benzoyl-1H-pyrrol-2-yl)-2-hydroxy-4-oxohexa-2,5-dienoic acid]",0.22 ± 0.01 µM,0.3 ± 0.13 µM,
O=C(/C=C/c1cc(C(=O)c2ccc([N+](=O)[O-])cc2)cn1Cc1ccc(F)cc1)/C=C(/O)C(=O)O [Compound 6f],0.64 ± 0.25 µM,7.71 ± 2.4 µM,
O=C(/C=C(\O)C(=O)O)/C=C/c1c[nH]cc1-c1ccccc1 [Compound 8c],,0.19 ± 0.08 µM,improvement in inhibitory activity in respect to hit compound 4 (TdT): higher than 3 times
CCOC(=O)/C(O)=C/C(=O)/C=C/c1c[nH]cc1-c1ccccc1 [Compound 7c],10.5 ± 3.6 µM,> 50 µM,
COc1cc(C(=O)c2c[nH]c(/C=C/C(=O)/C=C(\O)C(=O)O)c2)cc(OC)c1OC [Compound 6k],0.86 ± 0.14 µM,0.38 ± 0.06 µM,
CCOC(=O)/C(O)=C/C(=O)/C=C/c1cc(C(=O)c2ccc3c(c2)OCCO3)cn1Cc1ccc(F)cc1 [Compound 5c],,> 50 µM,
"CCOC(=O)/C(O)=C/C(=O)c1ccn(Cc2ccc(F)cc2)c1 [Compound 11a, Ethyl (Z)-4-(1-(4-fluorobenzyl)-1H-pyrrol-3-yl)-2-hydroxy-4-oxobut-2-enoate]",,> 50 µM,
"CCOC(=O)/C(O)=C/C(=O)/C=C/c1ccn(Cc2ccc(F)cc2)c1 [Compound 7a, Ethyl (2Z,5E)-6-(1-(4-fluorobenzyl)-1H-pyrrol-3-yl)-2-hydroxy-4-oxohexa-2,5-dienoate]",,> 50 µM,
O=C(/C=C(\O)C(=O)O)/C=C/c1cc(C(=O)c2ccc3c(c2)OCCO3)cn1Cc1ccc(F)cc1 [Compound 6c],,4.07 ± 0.81 µM,
CCOC(=O)/C(O)=C/C(=O)/C=C/c1cc(C(=O)c2ccc(NC(=O)c3ccc(OC)c(Br)c3)cc2)cn1Cc1ccc(F)cc1 [Compound 5g],0.91 ± 0.36 µM,> 50 µM,
"CCOC(=O)/C(O)=C/C(=O)/C=C/c1cccn1Cc1ccc(F)cc1 [Compound 5a, Ethyl (2Z,5E)-6-(1-(4-fluorobenzyl)-1H-pyrrol-2-yl)-2-hydroxy-4-oxohexa-2,5-dienoate]",,> 50 µM,
"CCOC(=O)/C(O)=C/C(=O)c1cccn1Cc1ccc(F)cc1 [Compound 9a, Ethyl (Z)-4-(1-(4-fluorobenzyl)-1H-pyrrol-2-yl)-2-hydroxy-4-oxobut-2-enoate]",,> 50 µM,
CCOC(=O)/C(O)=C/C(=O)/C=C/c1c[nH]cc1-c1cc(OC)c(OC)c(OC)c1 [Compound 7d],21.3 ± 5.05 µM,> 50 µM,
"O=C(/C=C(\O)C(=O)O)/C=C/c1ccn(Cc2ccc(F)cc2)c1 [Compound 8a, (2Z,5E)-6-(1-(4-fluorobenzyl)-1H-pyrrol-3-yl)-2-hydroxy-4-oxohexa-2,5-dienoic acid]",,6.31 ± 2.8 µM,
"O=C(O)/C(O)=C/C(=O)c1ccn(Cc2ccc(F)cc2)c1 [Compound 12a, (Z)-4-(1-(4-fluorobenzyl)-1H-pyrrol-3-yl)-2-hydroxy-4-oxobut-2-enoic acid]",,2.8 ± 0.7 µM,
"O=C(/C=C(\O)C(=O)O)/C=C/c1cccn1Cc1ccc(F)cc1 [Compound 6a, (2Z,5E)-6-(1-(4-fluorobenzyl)-1H-pyrrol-2-yl)-2-hydroxy-4-oxohexa-2,5-dienoic acid]",> 50 µM,1.63 ± 0.35 µM,"times higher activity than 4-phenyl counterpart 6b (TdT, Mn2+, ratio of ID50): 4 times; times more active than the hit compound 2 (TdT, Mn2+, ratio of ID50): about 6 times"
"CCOC(=O)/C(O)=C/C(=O)/C=C/c1cn(Cc2ccc(F)cc2)cc1-c1ccccc1 [Compound 7b, Ethyl (2Z,5E)-6-(1-(4-fluorobenzyl)-4-phenyl-1H-pyrrol-3-yl)-2-hydroxy-4-oxohexa-2,5-dienoate]",,2.72 ± 0.73 µM,
